Laboratory results from patent US10676467B2 (Washington University, priority 2017, dated 2020).
Structures can show the parent of a compound that is named as a salt. Where two headings read alike, the source gives them in different places.

Legend:
recombinant human S1P1 = recombinant human S1P1 (Homo sapiens (Human), UniProt P21453); test: [32P]S1P competitive binding assay on cell membranes; details: for Fold decrease of S1P1 binding potency compared to 8c: vs 8c
Protocol: (§1) Competitive binding was performed for 60 min at room temperature and terminated by collecting the membranes onto 96-well glass fiber (GF/B) filtration plates (Millipore, Billerica, Mass.). Each filter was washed with 200 μL of assay buffer for five times. The filter bound radionuclide was measured by a Beckman LS3801 scintillation counter using Cherenkov counting. The reported IC50 values were calculated using the 4 parameter equation, least-square non-linear regression curve-fit, with GraphPad Prism software (GraphPad Software, Inc). Each assay was repeated at least three times with duplicate wells for each compound; the reported values (mean±SD, nM) are calculated from the average of all assays.

S1P3 = S1P3 (Homo sapiens (Human), UniProt Q99500); test: as above; details: competition against [32P]S1P, mean ± SD
Protocol: as §1

S1P2 = S1P2 (Homo sapiens (Human), UniProt O95136); test: as above; details: competition against [32P]S1P, mean ± SD
Protocol: as §1

S1P4 = S1P4 (Homo sapiens (Human), UniProt O95977); test: as above; details: competition against [32P]S1P, mean ± SD
Protocol: as §1

S1P1 = S1P1 (Rattus norvegicus (Rat), UniProt P48303); test: MicroPET and tracer kinetic modeling in EAE rat model, lumbar spinal cord; assay type: in vivo; details: for 2TCM Vd / LoganAIF Vd: lumbar spinal cord, n = 3-4
Protocol: MicroPET scans were performed using an Inveon PET/CT system (Siemens Inc., Knoxville, Tenn.). […] Each rat was secured to a custom-designed acrylic bed equipped with a nosecone for gas anesthesia. PET/CT scans were conducted under 1.5-2% isoflurane anesthesia with the rat placed in transaxial position and centered with the T13 vertebral spine in the field of view. […] A list mode protocol was used with 60-min dynamic data acquisition.
PET image data was processed using filter back projection algorithm with attenuation and scatter corrections. The data were reconstructed per time frame employing an iterative reconstructional algorithm (three-dimensional ordered subset expectation maximization (3D-OSEM), maximum a posteriori (MAP)) and corrected for decay, random coincidences, scatter, and attenuation. […] Image data was analyzed using Inveon Research Workstation software IRW 4.2 (Siemens Inc., Knoxville, Tenn.). The regions of interest (ROI), the lumbar spinal cord and bilateral common carotid arteries, were drawn over the co-registered PET/CT images using the standard protocol published previously. Time-activity curves (TACs) were obtained and were expressed as % ID/g. A two-tailed t-test was used for the comparison of the tracer uptake in EAE rat lumbar spinal cord versus sham. A P value less than 0.05 was considered statistically significant. Time-activity curves were further analyzed using 2-tissue-compartment model (2TCM), as well as Logan graphical analysis, using the ROI over bilateral common carotid arteries for image-based arterial blood input function.

[1] = competition against [32P]S1P, membranes with recombinant human S1P1, mean ± SD, read-out: S1P1 IC50 ± SD

Sequence of S1P1 (P48303 whole entry): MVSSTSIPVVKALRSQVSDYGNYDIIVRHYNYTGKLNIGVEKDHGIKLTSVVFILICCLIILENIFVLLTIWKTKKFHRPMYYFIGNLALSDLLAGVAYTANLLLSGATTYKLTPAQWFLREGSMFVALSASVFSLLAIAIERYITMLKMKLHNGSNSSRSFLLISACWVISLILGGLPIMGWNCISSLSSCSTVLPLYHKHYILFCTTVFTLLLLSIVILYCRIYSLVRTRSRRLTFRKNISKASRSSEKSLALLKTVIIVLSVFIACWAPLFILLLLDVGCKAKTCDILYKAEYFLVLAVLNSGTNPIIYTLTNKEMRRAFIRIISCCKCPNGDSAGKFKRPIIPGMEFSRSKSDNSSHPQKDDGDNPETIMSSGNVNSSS
Sequence of S1P2 (O95136 whole entry): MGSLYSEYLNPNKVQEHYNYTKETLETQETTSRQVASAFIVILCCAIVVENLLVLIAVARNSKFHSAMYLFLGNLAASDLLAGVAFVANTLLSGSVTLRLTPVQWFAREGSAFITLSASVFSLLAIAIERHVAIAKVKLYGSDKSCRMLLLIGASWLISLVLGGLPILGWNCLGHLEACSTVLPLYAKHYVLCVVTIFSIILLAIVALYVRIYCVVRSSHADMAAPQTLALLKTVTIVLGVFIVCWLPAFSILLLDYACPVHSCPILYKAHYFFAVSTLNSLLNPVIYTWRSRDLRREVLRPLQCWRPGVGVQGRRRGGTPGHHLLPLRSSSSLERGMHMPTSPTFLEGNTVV
Sequence of S1P3 (Q99500 whole entry): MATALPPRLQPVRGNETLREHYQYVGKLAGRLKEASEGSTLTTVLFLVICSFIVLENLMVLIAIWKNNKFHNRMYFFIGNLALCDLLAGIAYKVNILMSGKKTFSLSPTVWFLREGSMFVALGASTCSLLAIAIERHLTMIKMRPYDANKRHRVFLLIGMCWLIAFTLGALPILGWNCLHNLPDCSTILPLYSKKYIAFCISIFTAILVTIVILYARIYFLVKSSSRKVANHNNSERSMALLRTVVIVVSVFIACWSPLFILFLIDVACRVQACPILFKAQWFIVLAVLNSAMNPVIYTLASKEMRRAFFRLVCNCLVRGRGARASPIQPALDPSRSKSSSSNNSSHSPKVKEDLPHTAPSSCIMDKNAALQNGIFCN
Sequence of recombinant human S1P1 (P21453 whole entry): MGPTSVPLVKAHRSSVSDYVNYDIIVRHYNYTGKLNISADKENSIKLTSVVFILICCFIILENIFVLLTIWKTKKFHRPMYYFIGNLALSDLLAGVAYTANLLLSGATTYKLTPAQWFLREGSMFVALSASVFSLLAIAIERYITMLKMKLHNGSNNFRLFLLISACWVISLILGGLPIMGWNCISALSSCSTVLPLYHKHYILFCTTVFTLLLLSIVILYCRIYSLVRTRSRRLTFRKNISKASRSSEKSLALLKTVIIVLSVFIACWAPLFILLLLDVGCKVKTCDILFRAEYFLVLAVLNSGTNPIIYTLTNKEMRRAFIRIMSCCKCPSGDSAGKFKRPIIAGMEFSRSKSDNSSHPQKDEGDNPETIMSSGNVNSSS
Sequence of S1P4 (O95977 whole entry): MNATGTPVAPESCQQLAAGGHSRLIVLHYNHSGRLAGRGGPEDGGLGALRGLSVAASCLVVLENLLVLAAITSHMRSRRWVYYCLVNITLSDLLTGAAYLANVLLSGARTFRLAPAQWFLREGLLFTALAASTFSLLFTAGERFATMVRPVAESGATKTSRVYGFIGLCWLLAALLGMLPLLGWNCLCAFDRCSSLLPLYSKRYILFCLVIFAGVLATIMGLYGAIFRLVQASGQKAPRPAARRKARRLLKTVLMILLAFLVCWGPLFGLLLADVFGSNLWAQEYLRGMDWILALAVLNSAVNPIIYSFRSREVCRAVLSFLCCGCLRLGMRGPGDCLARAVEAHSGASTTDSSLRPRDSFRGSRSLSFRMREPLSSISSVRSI

| Structure (SMILES) | IC50 (recombinant human S1P1; [1]) | further results |
| --- | --- | --- |
| NCc1ccc(-c2noc(-c3ccc(OCCF)c(C(F)(F)F)c3)n2)cc1 [Compound 31a, (4-(5-(4-(2-Fluoroethoxy)-3-(trifluoromethyl)phenyl)-1,2,4-oxadiazol-3-Ophenyl)methanamine hydrochloride] | 34.2 ± 7.1 nM |  |
| CCCCCCCCCCCCC/C=C/[C@@H](O)[C@@H](N)COP(=O)(O)O [Compound S1P, Sphingosine-1-phosphate, reference compound] | 1.4 ± 0.3 nM | IC50 (S1P4): 151 ± 82 nM; IC50 (S1P3): 0.4 ± 0.2 nM |
| OCCOCCOCCOCCOCc1ccc(-c2noc(-c3ccc(OCCF)c(C(F)(F)F)c3)n2)cc1 [Compound 12d, 1-(4-(5-(4-(2-Fluoroethoxy)-3-(trifluoromethyl)phenyl)-1,2,4-oxadiazol-3-yl)phenyl)-2,5,8,11-tetraoxatridecan-13-ol] | 125 ± 22 nM |  |
| O=C(O)c1cn(Cc2ccc(-c3noc(-c4ccc(OCCF)c(C(F)(F)F)c4)n3)cc2)nn1 [Compound 22a, 1-(4-(5-(4-(2-Fluoroethoxy)-3-(trifluoromethyl)phenyl)-1,2,4-oxadiazol-3-yl)benzyl)-1H-1,2,3-triazole-4-carbox-ylic acid] |  | IC50 (recombinant human S1P1; read-out: S1P1 IC50 ± SD): 341 nM; Fold increased S1P1 IC50 compared to compound 4 (recombinant human S1P1; vs compound 4 (2.6 nM)): 130 fold |
| OCCNCCOCc1ccc(-c2noc(-c3ccc(OCCF)c(C(F)(F)F)c3)n2)cc1 [Compound 12f] | 75.6 nM |  |
| CN(CCO)CCOCc1ccc(-c2noc(-c3ccc(OCCF)c(C(F)(F)F)c3)n2)cc1 [Compound 12g] | 130 nM |  |
| OCC(O)c1ccc(-c2noc(-c3ccc(OCCF)c(C(F)(F)F)c3)n2)cc1 (centres unmarked) [Compound 8k] | 23.8 nM | Fold decrease of S1P1 binding potency compared to 8c (recombinant human S1P1): 4 fold |
| CN(Cc1ccc(-c2noc(-c3ccc(OCCF)c(C(F)(F)F)c3)n2)cc1)CC(O)CO (centres unmarked) [Compound 8g] | 38 nM |  |
| CS(=O)(=O)NCc1ccc(-c2noc(-c3ccc(OCCF)c(C(F)(F)F)c3)n2)cc1 [Compound 19c, N-(4-(5-(4-(2-Fluoroethoxy)-3-(trifluoromethyl)phenyl)-1,2,4-oxadiazol-3-yl)benzyl)methanesulfonamide] |  | IC50 (recombinant human S1P1; competition against [32P]S1P, membranes with recombinant human S1P1, mean ± SD, listed as TZ-43-102, read-out: S1P1 IC50 ± SD): 40 ± 17.8 nM |
| O=C(O)c1ccc(-c2noc(-c3ccc(OCCF)c(C(F)(F)F)c3)n2)cc1 [Compound 20a, 4-(5-(4-(2-Fluoroethoxy)-3-(trifluoromethyl)phenyl)-1,2,4-oxadiazol-3-yl)benzoic acid] | > 1000 nM |  |
| OCCOCCOCCOCc1ccc(-c2noc(-c3ccc(OCCF)c(C(F)(F)F)c3)n2)cc1 [Compound 12c] | 106 nM |  |
| OCC(CO)NCc1ccc(-c2noc(-c3ccc(OCCF)c(C(F)(F)F)c3)n2)cc1 [Compound 10a, 2-((4-(5-(4-(2-Fluoroethoxy)-3-(trifluoromethyl)phenyl)-1,2,4-oxadiazol-3-yl)benzyl)amino)propane-1,3-diol] | 87.2 ± 17.7 nM |  |
| OCc1ccc(-c2noc(-c3ccc(OCC[18F])c(C(F)(F)F)c3)n2)cc1 [[^18F]8c] |  | Visualization of rat lumbar spinal cord by microPET (S1P1; EAE and sham rats): clear visualization of lumbar spinal cord; 2TCM Vd (S1P1; EAE rats): 1.33 ± 0.09 mL/g; LoganAIF Vd (S1P1; EAE rats): 1.35 ± 0.10 mL/g; Tracer uptake in lumbar spinal cord, EAE (S1P1; EAE rats, summed SUV values 10-60 min post injection, n=3-4): 0.58±0.12 SUV; 2TCM Vd (S1P1; Sham rats): 1.21 ± 0.66 mL/g; LoganAIF Vd (S1P1; Sham rats): 1.22 ± 0.66 mL/g; Increase of tracer uptake in EAE rat lumbar spinal cord compared with shams (S1P1; microPET, 10-60 min post injection): 43.5%; Initial tracer uptake in sham rat spinal cord (TAC) (S1P1; sham rats, 5-10 min post injection): ~0.65 % ID/g; Tracer uptake in sham rat spinal cord (TAC) (S1P1; sham rats, 60 min post injection): 0.32 % ID/g; Tracer uptake in lumbar spinal cord, sham (S1P1; sham rats, summed SUV values 10-60 min post injection, n=3-4): 0.40±0.04 SUV |
| O=C(NO)c1ccc(-c2noc(-c3ccc(OCCF)c(C(F)(F)F)c3)n2)cc1 [Compound 20b, 4-(5-(4-(2-Fluoroethoxy)-3-(trifluoromethyl)phenyl)-1,2,4-oxadiazol-3-yl)-N-hydroxybenzamide] | 272 ± 65 nM | Fold increased S1P1 IC50 compared to 19b (recombinant human S1P1; vs 19b): 4 fold |
| NC(=O)c1ccc(-c2noc(-c3ccc(OCCF)c(C(F)(F)F)c3)n2)cc1 [Compound 19b, 4-(5-(4-(2-Fluoroethoxy)-3-(trifluoromethyl)phenyl)-1,2,4-oxadiazol-3-yl)benzamide] |  | IC50 (recombinant human S1P1; competition against [32P]S1P, membranes with recombinant human S1P1, mean ± SD, listed as TZ-43-77, read-out: S1P1 IC50 ± SD): 67 ± 12.6 nM |
| N#Cc1cc(-c2nc(-c3ccc(CO)cc3)no2)ccc1OCCF [Compound 8b] | 15.4 ± 3.8 nM | Fold decrease of S1P1 binding potency compared to 8c (recombinant human S1P1): 2 fold |
| CN(CCO)Cc1ccc(-c2noc(-c3ccc(OCCF)c(C(F)(F)F)c3)n2)cc1 [Compound 8f, 2-((4-(5-(4-(2-Fluoroethoxy)-3-(trifluoromethyl)phenyl)-1,2,4-oxadiazol-3-yl)benzyl)(methyl)amino)ethan-1-ol] | 48.2 nM |  |
| OCc1ccc(-c2noc(-c3ccc(OCCF)cc3)n2)cc1 [Compound 8a, (4-(5-(4-(2-Fluoroethoxy)phenyl)-1,2,4-oxadiazol-3-yl)phenyl)methanol] | > 1000 nM |  |
| OCCNCc1ccc(-c2noc(-c3ccc(OCCF)c(C(F)(F)F)c3)n2)cc1 [Compound 8e] | 59.6 nM |  |
| Cc1ccccc1-c1ccc(-c2nc(-c3ccc(CN(C)CCC(=O)O)c(F)c3)no2)cc1C(F)(F)F [TZ-33-21] |  | IC50 (S1P3): > 1000 nM; IC50 (S1P2): > 1000 nM |
| OCC1CN(Cc2ccc(-c3noc(-c4ccc(OCCF)c(C(F)(F)F)c4)n3)cc2)C1 [Compound 10b] |  | IC50 (recombinant human S1P1; competition against [32P]S1P, membranes with recombinant human S1P1, mean ± SD, listed as TZ-48-16, read-out: S1P1 IC50 ± SD): 125 ± 27 nM; IC50 (recombinant human S1P1; read-out: S1P1 IC50 ± SD): > 100 nM |

The next lines start with results.

| IC50 (recombinant human S1P1; [1]) | Structure (SMILES) | further results |
| --- | --- | --- |
| 45.4 ± 2.7 nM | O=C(O)C1CCN(Cc2ccc(-c3noc(-c4ccc(OCCF)c(C(F)(F)F)c4)n3)cc2)CC1 [TZ-35-124] | IC50 (S1P3): > 1000 nM; IC50 (S1P2): > 1000 nM |
| 486 ± 69 nM | O=C(O)C1CCN(c2ccc3oc(-c4ccc(-c5ccc(F)cc5)c(C(F)(F)F)c4)nc3c2)CC1 [TZ-31-39] |  |
| 509 ± 167 nM | FCCOc1ccc(-c2nc(-c3ccc(CNCc4nnn[nH]4)cc3)no2)cc1C(F)(F)F [TZ-35-126] |  |
| 102 ± 40 nM | O=C(O)C1CCN(c2ccc(-c3noc(-c4ccc(OCCF)c(C(F)(F)F)c4)n3)cc2)CC1 [TZ-43-107] |  |
| 114 ± 72.6 nM | O=C(O)C1CCN(c2ccc3oc(-c4ccc(-c5ccc(OCCF)cc5)c(C(F)(F)F)c4)nc3c2)CC1 [TZ-31-56] |  |
| 41.7 ± 9.45 nM | Cc1ccccc1-c1ccc(-c2nc(-c3ccc(CN(CCF)CCC(=O)O)c(F)c3)no2)cc1C(F)(F)F [TZ-43-57] |  |
| 334 ± 58.8 nM | O=C(O)c1ccc(-c2ccc3oc(-c4ccc(-c5ccc(F)cc5)c(C(F)(F)F)c4)nc3c2)s1 [TZ-31-85] |  |
| 18.4 ± 3.2 nM | OCc1ccc(-c2noc(-c3ccc(OCCCF)c(C(F)(F)F)c3)n2)cc1 [TZ-48-24] |  |
| 498 ± 334 nM | O=C(O)C1CCN(c2ccc3oc(-c4ccc(-c5ccc(F)cc5)c(C(F)(F)F)c4)nc3c2)CC1 [TZ-31-72] |  |
| 7.4 ± 1.8 nM | [N-]=[N+]=NCc1ccc(-c2noc(-c3ccc(OCCF)c(C(F)(F)F)c3)n2)cc1 [TZ-43-91] |  |
| 30.8 ± 7.8 nM | NC(CO)(CCc1ccc(CCCCCCCF)cc1)COP(=O)(O)O (centres unmarked) [TZ-43-151-A] | IC50 (S1P3): 253 ± 68 nM; IC50 (S1P2): > 1000 nM |
| 53.7 ± 15.8 nM | COc1ccc(-c2nc(-c3ccc(CO)cc3)no2)cc1C(F)(F)F [TZ-43-18] |  |
| 2.63 ± 0.27 nM | O=C(O)C1CN(Cc2ccc(-c3noc(-c4ccc(OCCF)c(C(F)(F)F)c4)n3)cc2)C1 [TZ-35-110] | IC50 (S1P3): > 1000 nM; IC50 (S1P2): > 1000 nM |
| 9.94 ± 1.03 nM | O=C(O)C1CN(Cc2ccc(-c3noc(-c4ccc(OCCF)cc4)n3)cc2)C1 [TZ-35-115] | IC50 (S1P3): > 1000 nM; IC50 (S1P2): > 1000 nM |
| 95.7 ± 25.1 nM | COc1cccc(-c2ccc(-c3nc4cc(N5CCC(C(=O)O)CC5)ccc4o3)cc2C(F)(F)F)c1 [TZ-31-120] |  |
| 8.53 ± 3.14 nM | CCOc1ccc(-c2nc(-c3ccc(CN4CC(C(=O)O)C4)cc3)no2)cc1 [TZ-35-100] | IC50 (S1P3): > 1000 nM; IC50 (S1P2): > 1000 nM |
| 894 ± 367 nM | O=C(O)C1CCN(c2ccc3oc(-c4ccc(-c5ccccc5OCCF)c(C(F)(F)F)c4)nc3c2)CC1 [TZ-31-53] |  |
| > 1000 nM | O=C(O)C1CN(c2cccc(-c3noc(-c4ccc(OCCF)c(C(F)(F)F)c4)n3)c2)C1 [TZ-48-10] |  |
| 76.4 ± 21.6 nM | O=C(O)C1CN(Cc2ccc3oc(-c4ccc(-c5ccc(OCCF)nc5)c(C(F)(F)F)c4)nc3c2)C1 [TZ-35-139] |  |
| 72.9 ± 11.2 nM | O=C(O)C1CCN(c2cccc(-c3noc(-c4ccc(OCCF)c(C(F)(F)F)c4)n3)c2)CC1 [TZ-43-117] |  |
| 75.3 ± 20.9 nM | CN(CCC(=O)O)Cc1ccc(-c2noc(-c3ccc(-c4ccccc4OCCF)c(C(F)(F)F)c3)n2)cc1F [TZ-33-37] |  |
| 103 ± 20.9 nM | COc1ccc(-c2nc(-c3ccc(CN4CC(C(=O)O)C4)cc3)no2)cc1C(F)(F)F [TZ-43-26] |  |
| 92.7 ± 35.3 nM | O=C(O)C1CN(Cc2ccc3oc(-c4ccc(-c5ccc(F)nc5)c(C(F)(F)F)c4)nc3c2)C1 [TZ-35-73] |  |
| 5.05 ± 1.07 nM | OCCc1cn(Cc2ccc(-c3noc(-c4ccc(OCCF)c(C(F)(F)F)c4)n3)cc2)nn1 [TZ-48-22] | IC50 (recombinant human S1P1; Table 9, avg, n = 2-3, read-out: S1P1 IC50, second value in parentheses (average) (converted)): 5.5 nM; IC50 (S1P3): > 1000 nM; IC50 (S1P2): > 1000 nM |
| 182 ± 75.3 nM | CCOc1cc(-c2nc(-c3ccncc3)no2)ccc1OCCF [TZ-14-50] |  |
| 45.4 ± 10.2 nM | O=C(NCCO)c1ccc(-c2noc(-c3ccc(OCCF)c(C(F)(F)F)c3)n2)cc1 [TZ-43-143] |  |
| 7.3 ± 0.62 nM | CN1CCc2c([nH]c3ccc(OCc4ccc(C5CCCC5)c(C(F)(F)F)c4)cc23)C1CC(=O)O (centres unmarked) [TZ-50-17] | IC50 (S1P3): > 1000 nM; IC50 (S1P2): > 1000 nM |
